Test results as given in US6869611B1, “Composition and method of effecting superficial chemical skin peels” (priority 1996, dated 2005).

Experiments:
[1] = cited from earlier work
[2] = saturation concentration / solubility of salicylic acid in solvent; assay type: physicochemical; conditions: solution temperature of 25° C.

Structure (SMILES): O=C(O)c1ccccc1O [salicylic acid, 2-hydroxybenzoic acid]
- solubility in water [1]: relatively insoluble in water
- saturation concentration of salicylic acid in ethanol [2]: > 30 wt %
